From patent US20070238785A1, “Use of an anti-atherothrombotic compound in obtaining medicaments intended for the treatment of vascular disorders” (priority 2006, published 2007)
Where a name gives a salt, the structure may show the parent alone.

Assays:
[1] = tested on: radial artery; assay: peripheral vasomotor response, provoked hyperaemia test in atheromatous patients; format: in vivo; conditions: versus placebo, patients treated with aspirin; whatever the dose, single or repeated administration (15 days), about 2 hours after administration
Method: This superiority is observed whatever the dose, after single administration or repeated administration (15 days), the vasodilatory effect being evaluated about 2 hours after administration of the medicament.

[2] = tested on: carotid thrombosis; assay: models of carotid thrombosis in vivo and ex vivo (occlusion time); conditions: carotid thrombosis: vascular electrolysis (dog), mechanical lesion (guinea pig), electric stimulation (rat), ex vivo carotid-carotid arterial bypass by glass capillary
[3] = tested on: atherosclerotic lesion; assay: experimental models of anti-proliferative, anti-atheromatous and anti-inflammatory effects; format: in vivo
[4] = tested on: sodium-loaded SHR-SP rat; assay: survival study in sodium-loaded SHR-SP rat; format: in vivo; conditions: 30 mg/kg/day in food, 1% NaCl in drinking water, from 10 weeks of age; Carrier group 57 days
Method: (§1) 10-week old male SHR-SP rats (Charles River) being given 1% NaCl in their drinking water were separated into two groups in random manner and were treated, or not, with the sodium salt of the (R) isomer of the compound of formula (I) (30 mg/kg/day) incorporated in their food.
In a first study, the survival of each group was determined by calculating the percentage of animals alive each day after the start of treatment.
(§2) The results are reported as the mean±S.E.M. Differences are considered significant when P<0.05 after a Student's t test. The survival of the animals is represented on a Kaplan-Meier graph and the results are considered significant when P<0.05 after a log-rank test.

[5] = tested on: sodium-loaded SHR-SP rat; assay: 5-week study in sodium-loaded SHR-SP rat (cardiac hypertrophy, urinary 8-OH-dG, plasma thiostatin); format: in vivo; conditions: 30 mg/kg/day in food, 5 weeks, compared to Carrier group
Method: as §1
In a second study, the rats were monitored over 5 weeks, between 10 and 15 weeks of age, and were then sacrificed in order to quantify a urinary marker of oxidative stress (8-OH-dG) and a plasma marker reflecting acute inflammation (thiostatin, which in the rat is the equivalent of CRP) and in order to determine cardiac hypertrophy.
During the last 24 hours of monitoring, the animals were placed in individual metabolic cages and the urines were collected in sterile tubes (200 μl of 2 mM EDTA). Diuresis was measured and the production of 8-hydroxy-2′-deoxyguanosine (8-OH-dG) was quantified by ELISA assay (Oxis, Bioxytech).
The rats were anaesthetised by intraperitoneal injection of pentobarbital sodium (50 mg/kg, Ceva laboratories). Blood was sampled from the carotid artery (sampling into heparin 5000 IU/ml) in order to measure thiostatin production by ELISA assay (Life Diagnostics). The heart was excised, dried and weighed, and cardiac hypertrophy was determined by dividing the weight of the dry heart by the body weight for each animal in order to standardise the measurement.
as §2

[6] = tested on: thrombus; assay: ex vivo anti-thrombotic activity, perfusion chamber model, in patients at high risk of ischaemic CVA
From the text: In this study, the sodium salt of the (R) isomer of the compound of formula (I) also has an effect on the measured markers of inflammation (sVCAM, sPAI-1, sP-selectin, thrombomodulin).

[7] = after 10 days of administration, compared with aspirin

## Cc1ccc2c(c1CCC(=O)O)CCC(NS(=O)(=O)c1ccc(Cl)cc1)C2 [sodium salt of the (R) isomer of the compound of formula (I), 3-{6-[(4-chlorophenylsulphonyl)amino]-2-methyl-5,6,7,8-tetrahydro-naphth-1-yl}propionic acid]
[1]
  endothelium-dependent vasodilation: superiority
[2]
  occlusion time: lengthens the occlusion time in dose-dependent manner
[3]
  expression of adhesion molecules and markers such as endothelin, ICAM and VCAM: inhibits
  infiltration of macrophages into the vascular wall: inhibits
  intima/media ratio: significantly reduces
  serum cholesterol: without reducing
  surface area of the atherosclerotic lesion: significantly reduces
  thickness of the vascular wall: significantly reduces
[4]
  time after which half the rats were dead (survival): 99 days
[5]
  cardiac hypertrophy (dry heart weight / body weight): less marked
  plasma thiostatin (acute inflammation): lower
  total amount of 8-OH-dG in urines over 24 hours (oxidative stress): reduced
[6]; [7]
  % adhesion: superiority
  dense surface area of the thrombus: superiority
  total surface area of the thrombus: superiority
[6]; patients at high risk of ischaemic CVA
  measured markers of inflammation (sVCAM, sPAI-1, sP-selectin, thrombomodulin): has an effect
